The supplement of paper PMC10307832

Key:
Assay in all cases: relative viability (nuclei count vs DMSO), 5 days (fraction); higher = more cells survive
[1] = test system: H3255
How it was run: (§1)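 The day after seeding in 1536-well plates, lung cancer cell lines were treated by pin tool with a single drug, or with a fixed anchor-drug dose together with five library-drug doses (not always all listed) in √10 steps. After 5 days, a combined fix-and-stain solution (final 0.05% Triton X-100, 1% formaldehyde, 1 ug/ml Hoechst) was added. Nuclei counted on 4× images gave relative viability as treated counts over vehicle counts, reported as the median of duplicate plates.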

[2] = test system: SK-MES-1
How it was run: as §1

[3] = test system: ChaGo-K-1
How it was run: as §1

[4] = test system: EMC-BAC-2
How it was run: as §1

[5] = test system: NCI-H1993
How it was run: as §1

[6] = test system: NCI-H2087
How it was run: as §1

[7] = test system: EPLC-272H
How it was run: as §1

[8] = test system: NCI-H1944
How it was run: as §1

[9] = test system: NCI-H1395
How it was run: as §1

[10] = test system: NCI-H650
How it was run: as §1

[11] = test system: LCLC-103H
How it was run: as §1

[12] = test system: LCLC-97TM1
How it was run: as §1

[13] = test system: NCI-H322M
How it was run: as §1

[14] = test system: NCI-H520
How it was run: as §1

[15] = test system: NCI-H1793
How it was run: as §1

[16] = test system: NCI-H1651
How it was run: as §1

[17] = test system: NCI-H1355
How it was run: as §1

[18] = test system: HCC-44
How it was run: as §1

[19] = test system: NCI-H1563
How it was run: as §1

[20] = test system: HCC-827
How it was run: as §1

[21] = test system: NCI-H23
How it was run: as §1

[22] = test system: NCI-H2405
How it was run: as §1

[23] = test system: UMC-11
How it was run: as §1

[24] = test system: NCI-H2085
How it was run: as §1

## C[C@@H]1CN(CC(=O)Nc2ccc3c(c2)Cc2cccc(-c4cc(=O)cc(N5CCOCC5)o4)c2S3)C[C@H](C)O1 + Nc1nc2[nH]cc(CCc3ccc(C(=O)N[C@@H](CCC(=O)O)C(=O)O)cc3)c2c(=O)[nH]1 [Pemetrexed] (partner 0.2 µM)
[1]; first compound 0.04 µM
  relative viability: 0.539
[1]; first compound 0.1265 µM
  relative viability: 0.522
[1]; first compound 0.4 µM
  relative viability: 0.482
[1]; first compound 4 µM
  relative viability: 0.489
[2]; first compound 0.04 µM
  relative viability: 1.01
[2]; first compound 0.1265 µM
  relative viability: 0.9
[2]; first compound 0.4 µM
  relative viability: 0.808
[2]; first compound 4 µM
  relative viability: 0.808
[3]; first compound 0.04 µM
  relative viability: 0.24
[3]; first compound 0.1265 µM
  relative viability: 0.245
[3]; first compound 0.4 µM
  relative viability: 0.252
[3]; first compound 4 µM
  relative viability: 0.226
[4]; first compound 0.04 µM
  relative viability: 0.417
[4]; first compound 0.1265 µM
  relative viability: 0.439
[4]; first compound 0.4 µM
  relative viability: 0.458
[4]; first compound 4 µM
  relative viability: 0.459
[5]; first compound 0.04 µM
  relative viability: 0.63
[5]; first compound 0.1265 µM
  relative viability: 0.587
[5]; first compound 0.4 µM
  relative viability: 0.542
[5]; first compound 4 µM
  relative viability: 0.578
[6]; first compound 0.04 µM
  relative viability: 0.676
[6]; first compound 0.1265 µM
  relative viability: 0.668
[6]; first compound 0.4 µM
  relative viability: 0.677
[6]; first compound 4 µM
  relative viability: 0.621
[7]; first compound 0.04 µM
  relative viability: 0.311
[7]; first compound 0.1265 µM
  relative viability: 0.371
[7]; first compound 0.4 µM
  relative viability: 0.313
[7]; first compound 4 µM
  relative viability: 0.269
[8]; first compound 0.1265 µM
  relative viability: 0.819
[8]; first compound 0.4 µM
  relative viability: 0.642
[8]; first compound 4 µM
  relative viability: 0.616
[9]; first compound 0.1265 µM
  relative viability: 0.833
[9]; first compound 0.4 µM
  relative viability: 0.749
[9]; first compound 4 µM
  relative viability: 1.08
[10]; first compound 0.04 µM
  relative viability: 0.925
[10]; first compound 0.1265 µM
  relative viability: 0.866
[10]; first compound 0.4 µM
  relative viability: 0.943
[10]; first compound 4 µM
  relative viability: 0.812
[11]; first compound 0.04 µM
  relative viability: 0.495
[11]; first compound 0.1265 µM
  relative viability: 0.464
[11]; first compound 0.4 µM
  relative viability: 0.458
[11]; first compound 4 µM
  relative viability: 0.507
[12]; first compound 0.1265 µM
  relative viability: 0.192
[12]; first compound 0.4 µM
  relative viability: 0.183
[12]; first compound 4 µM
  relative viability: 0.17
[13]; first compound 0.04 µM
  relative viability: 0.597
[13]; first compound 0.1265 µM
  relative viability: 0.607
[13]; first compound 0.4 µM
  relative viability: 0.649
[13]; first compound 4 µM
  relative viability: 0.657
[14]; first compound 0.04 µM
  relative viability: 0.844
[14]; first compound 0.1265 µM
  relative viability: 0.666
[14]; first compound 0.4 µM
  relative viability: 0.534
[14]; first compound 4 µM
  relative viability: 0.492
[15]; first compound 0.04 µM
  relative viability: 0.98
[15]; first compound 0.1265 µM
  relative viability: 0.752
[15]; first compound 0.4 µM
  relative viability: 0.855
[15]; first compound 4 µM
  relative viability: 0.485
[16]; first compound 0.04 µM
  relative viability: 0.549
[16]; first compound 0.1265 µM
  relative viability: 0.565
[16]; first compound 0.4 µM
  relative viability: 0.569
[16]; first compound 4 µM
  relative viability: 0.52
[17]; first compound 0.04 µM
  relative viability: 0.941
[17]; first compound 0.1265 µM
  relative viability: 1.04
[17]; first compound 0.4 µM
  relative viability: 0.959
[17]; first compound 4 µM
  relative viability: 0.997
[18]; first compound 0.04 µM
  relative viability: 0.639
[18]; first compound 0.1265 µM
  relative viability: 0.644
[18]; first compound 0.4 µM
  relative viability: 0.639
[18]; first compound 4 µM
  relative viability: 0.63
[19]; first compound 0.04 µM
  relative viability: 0.661
[19]; first compound 0.1265 µM
  relative viability: 0.774
[19]; first compound 0.4 µM
  relative viability: 0.715
[19]; first compound 4 µM
  relative viability: 0.712
[20]; first compound 0.04 µM
  relative viability: 0.253
[20]; first compound 0.1265 µM
  relative viability: 0.247
[20]; first compound 0.4 µM
  relative viability: 0.247
[20]; first compound 4 µM
  relative viability: 0.3
[21]; first compound 0.04 µM
  relative viability: 0.685
[21]; first compound 0.1265 µM
  relative viability: 0.696
[21]; first compound 0.4 µM
  relative viability: 0.617
[21]; first compound 4 µM
  relative viability: 0.521
[22]; first compound 0.04 µM
  relative viability: 1.11
[22]; first compound 0.1265 µM
  relative viability: 1.01
[22]; first compound 0.4 µM
  relative viability: 1.04
[22]; first compound 4 µM
  relative viability: 1.03
[23]; first compound 0.04 µM
  relative viability: 0.757
[23]; first compound 0.1265 µM
  relative viability: 0.764
[23]; first compound 0.4 µM
  relative viability: 0.767
[23]; first compound 4 µM
  relative viability: 0.674
[24]; first compound 0.04 µM
  relative viability: 0.961
[24]; first compound 0.1265 µM
  relative viability: 0.936
[24]; first compound 0.4 µM
  relative viability: 0.935
[24]; first compound 4 µM
  relative viability: 0.759
